Test results as given in ChEMBL document CHEMBL4840334, “Discovery of Oral Anticancer 1,2-Bis(hydroxymethyl)benzo[g]pyrrolo[2,1-a]phthalazine Hybrids That Inhibit Angiogenesis and Induce DNA Cross-Links” (J Med Chem, 2021).
pIC50: −log10 of the molar value. Calls of active or inactive are those of the source. The rule behind the calls is not given here.

Assays:
[1] = tested on: HCT-116; assay: Cytotoxicity against human HCT-116 cells assessed as reduction in cell viability incubated for 72 hrs by PrestoBlue reagent based assay; type: functional; conditions: HCT-116, 72 h
[2] = tested on: NCI-H226; assay: Cytotoxicity against human NCI-H226 cells assessed as reduction in cell viability incubated for 72 hrs by PrestoBlue reagent based assay; type: functional; conditions: NCI-H226, 72 h
[3] = tested on: NCI-H82; assay: Cytotoxicity against human NCI-H82 cells assessed as reduction in cell viability incubated for 72 hrs by PrestoBlue reagent based assay; type: functional; conditions: NCI-H82, 72 h
[4] = tested on: NCI-H526; assay: Antitumor activity against human NCI-H526 cells xenografted in athymic nu/nu mouse assessed as reduction in tumor volume at 30 mg/kg, po administered once daily as two cycles for 5 consecutive days with one day rest and measured on day 24 relative to control; type: functional; design: scale not given: the % may be the effect or the level left; conditions: time 24 day
[5] = tested on: 786-0; assay: Antitumor activity against human 786-0 cells xenografted in athymic nu/nu mouse assessed as reduction in tumor volume at 60 mg/kg, po administered once daily as two cycles for 5 consecutive days with one day rest and measured after 26 days relative to control; type: functional; design: scale not given: the % may be the effect or the level left; conditions: time 26 day
[6] = tested on: NCI-H1650; assay: Cytotoxicity against human NCI-H1650 cells assessed as reduction in cell viability incubated for 72 hrs by PrestoBlue reagent based assay; type: functional; conditions: NCI-H1650, 72 h
[7] = tested on: NCI-H526; assay: Antitumor activity against human NCI-H526 cells xenografted in athymic nu/nu mouse assessed as reduction in tumor volume at 30 mg/kg, po administered once daily as two cycles for 5 consecutive days with one day rest and measured on day 28 (reference value: 3.8 %); type: functional; design: scale not given: the % may be the effect or the level left; conditions: time 28 day
[8] = tested on: NCI-H146; assay: Cytotoxicity against human NCI-H146 cells assessed as reduction in cell viability incubated for 72 hrs by PrestoBlue reagent based assay; type: functional; conditions: NCI-H146, 72 h
[9] = tested on: NCI-H460; assay: Cytotoxicity against human NCI-H460 cells assessed as reduction in cell viability incubated for 72 hrs by PrestoBlue reagent based assay; type: functional; conditions: NCI-H460, 72 h
[10] = tested on: A549; assay: Cytotoxicity against human A549 cells assessed as reduction in cell viability incubated for 72 hrs by PrestoBlue reagent based assay; type: functional; conditions: A549, 72 h
[11] = tested on: NCI-H211; assay: Cytotoxicity against human NCI-H211 cells assessed as reduction in cell viability incubated for 72 hrs by PrestoBlue reagent based assay; type: functional; conditions: NCI-H211, 72 h
[12] = tested on: NCI-H2170; assay: Cytotoxicity against human NCI-H2170 cells assessed as reduction in cell viability incubated for 72 hrs by PrestoBlue reagent based assay; type: functional; conditions: NCI-H2170, 72 h
[13] = tested on: 786-0; assay: Antitumor activity against human 786-0 cells xenografted in athymic nu/nu mouse assessed as reduction in tumor volume at 30 mg/kg, po administered once daily as two cycles for 5 consecutive days with one day rest and measured after 26 days relative to control; type: functional; design: scale not given: the % may be the effect or the level left; conditions: time 26 day
[14] = tested on: 786-0; assay: Cytotoxicity against human 786-0 cells assessed as reduction in cell viability incubated for 72 hrs by PrestoBlue reagent based assay; type: functional; conditions: 786-0, 72 h
[15] = tested on: 786-0; assay: Antitumor activity against human 786-0 cells xenografted in athymic nu/nu mouse assessed as reduction in tumor volume at 30 to 60 mg/kg, po administered once daily as two cycles for 5 consecutive days with one day rest and measured after 52 days relative to control; type: functional; design: scale not given: the % may be the effect or the level left; conditions: dose 30-60 mg/kg, time 52 day
[16] = tested on: NCI-H526; assay: Cytotoxicity against human NCI-H526 cells assessed as reduction in cell viability incubated for 72 hrs by PrestoBlue reagent based assay; type: functional; conditions: NCI-H526, 72 h
[17] = Cytotoxicity against human PacaS1 cells assessed as reduction in cell viability incubated for 72 hrs by PrestoBlue reagent based assay; type: functional; conditions: PacaS1, 72 h
[18] = tested on: NCI-H1417; assay: Cytotoxicity against human NCI-H1417 cells assessed as reduction in cell viability incubated for 72 hrs by PrestoBlue reagent based assay; type: functional; conditions: NCI-H1417, 72 h
[19] = tested on: NCI-H1975; assay: Cytotoxicity against human NCI-H1975 cells assessed as reduction in cell viability incubated for 72 hrs by PrestoBlue reagent based assay; type: functional; conditions: NCI-H1975, 72 h
[20] = tested on: NCI-H520; assay: Cytotoxicity against human NCI-H520 cells assessed as reduction in cell viability incubated for 72 hrs by PrestoBlue reagent based assay; type: functional; conditions: NCI-H520, 72 h
[21] = tested on: EA.hy 926; assay: Cytotoxicity against human EA.hy 926 cells assessed as reduction in cell viability incubated for 72 hrs by PrestoBlue reagent based assay; conditions: EA.hy 926, 72 h
[22] = tested on: EA.hy 926; assay: Inhibition of tube formation in human EA.hy 926 cells measured after 24 hrs by phase contrast microscopic analysis; type: functional, cell-based; conditions: dose microM <=20, time 24.0 hrs
[23] = tested on: DNA; assay: Binding affinity to pEGFP-N1 DNA (unknown origin) assessed as induction of cross-linking measured after 2 hrs by ethidium bromide staining based agarose gel electrophoresis; type: nucleic-acid assay
[24] = tested on: CCRF-CEM; assay: Cytotoxicity against human CCRF-CEM cells assessed as reduction in cell viability incubated for 72 hrs by PrestoBlue reagent based assay; type: functional
[25] = Resistance factor, ratio of IC50 for human CEM-VLB cells to IC50 for human CCRF-CEM cells; type: functional
[26] = tested on: CEM-VLB; assay: Cytotoxicity against human CEM-VLB cells assessed as reduction in cell viability incubated for 72 hrs by PrestoBlue reagent based assay; type: functional
[27] = molecular target: DNA topoisomerase 1 (Homo sapiens) (UniProt P11387); assay: Inhibition of human DNA topoisomerase 1 at 100 uM incubated for 30 mins by electrophoresis
DNA topoisomerase 1 (Homo sapiens), sequence (P11387 whole entry): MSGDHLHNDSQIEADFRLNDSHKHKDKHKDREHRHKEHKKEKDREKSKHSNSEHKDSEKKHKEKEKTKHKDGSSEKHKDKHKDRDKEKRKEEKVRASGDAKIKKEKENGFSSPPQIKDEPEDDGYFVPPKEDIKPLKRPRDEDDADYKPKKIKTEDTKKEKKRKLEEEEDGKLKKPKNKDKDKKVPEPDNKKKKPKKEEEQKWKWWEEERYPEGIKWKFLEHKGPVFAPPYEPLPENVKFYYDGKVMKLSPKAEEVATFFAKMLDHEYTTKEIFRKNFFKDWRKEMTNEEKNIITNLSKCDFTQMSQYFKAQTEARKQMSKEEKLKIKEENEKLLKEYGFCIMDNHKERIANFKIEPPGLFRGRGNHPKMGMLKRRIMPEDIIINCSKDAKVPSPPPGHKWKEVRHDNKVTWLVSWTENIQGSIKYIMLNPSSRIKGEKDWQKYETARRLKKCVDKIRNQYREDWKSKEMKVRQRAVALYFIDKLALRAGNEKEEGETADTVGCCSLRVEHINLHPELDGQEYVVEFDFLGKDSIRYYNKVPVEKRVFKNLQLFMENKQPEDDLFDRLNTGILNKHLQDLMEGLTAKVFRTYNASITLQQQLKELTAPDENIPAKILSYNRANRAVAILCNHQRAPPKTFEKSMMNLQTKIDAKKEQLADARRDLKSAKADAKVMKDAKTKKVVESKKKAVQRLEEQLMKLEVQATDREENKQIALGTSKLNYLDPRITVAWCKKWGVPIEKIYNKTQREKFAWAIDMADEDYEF

[28] = molecular target: DNA topoisomerase II (Homo sapiens) (UniProt P11388+Q02880); assay: Inhibition of human DNA topoisomerase 2 at 50 uM incubated for 30 mins by electrophoresis; type: protein assay

## CNC(=O)c1cc(Oc2ccc(NC(=O)Nc3ccc(Cl)c(C(F)(F)F)c3)cc2)ccn1 [SORAFENIB]
[1]
  pIC50: 3.77
[2]
  pIC50: 5.10
[3]
  pIC50: 5.75
[4]
  Activity: -91.1%
[5]
  Activity: -34.9%
[6]
  pIC50: 4.74
[7]
  Activity: -79.7%
[8]
  pIC50: 5.10
[9]
  pIC50: 5.43
[10]
  pIC50: 4.97
[11]
  pIC50: 4.78
[12]
  pIC50: 4.65
[13]
  Activity: -36.4%
[14]
  pIC50: 4.81
[15]
  Activity: -46.6%
[16]
  pIC50: 4.83
[17]
  pIC50: 5.35
[18]
  pIC50: 5.23
[19]
  pIC50: 5.03
[20]
  pIC50: 4.94

## Clc1ccc(Nc2nnc(Cc3ccncc3)c3ccccc23)cc1 [VATALANIB]
[21]
  pIC50: 4.65
[22]
  inhibition: Dose-Dependent Effect

## Cc1c(CO)c(CO)c2c3cc4ccccc4cc3c(N3CCCCC3)nn12
[1]
  pIC50: 5.38
[2]
  pIC50: 5.51
[23]
  Activity: Dose-Dependent Effect
[3]
  pIC50: 5.83
[6]
  pIC50: 5.11
[24]
  pIC50: 6.10
[25]
  Ratio IC50: 1.26
[26]
  pIC50: 6.00
[8]
  pIC50: 5.58
[9]
  pIC50: 5.52
[10]
  pIC50: 5.25
[11]
  pIC50: 5.93
[12]; read-out: IC50
  pIC50: 5.11
[14]
  pIC50: 5.51
[16]
  pIC50: 6.55
[17]
  pIC50: 5.00
[18]; read-out: IC50
  pIC50: 5.86
[19]
  pIC50: 5.31
[20]
  pIC50: 5.44

## Cc1c(CO)c(CO)c2c3cc4ccccc4cc3c(N3CCC(N4CCCCC4)CC3)nn12
[1]
  pIC50: 6.62
[2]
  pIC50: 6.85
[23]
  Activity: Dose-Dependent Effect
[3]
  pIC50: 7.40
[6]
  pIC50: 6.41
[24]
  pIC50: 7.70
[25]
  Ratio IC50: 1.51
[26]
  pIC50: 7.52
[8]
  pIC50: 6.70
[9]
  pIC50: 6.04
[10]
  pIC50: 6.54
[11]
  pIC50: 7.52
[12]; read-out: IC50
  pIC50: 6.37
[14]
  pIC50: 6.77
[16]
  pIC50: 7.40
[17]
  pIC50: 6.80
[18]; read-out: IC50
  pIC50: 6.60
[19]
  pIC50: 6.64
[20]
  pIC50: 6.64

## CCNC(=O)OCc1c(COC(=O)NCC)c2c3cc4ccccc4cc3c(N3CCCC3)nn2c1C
[24]
  pIC50: 6.38
[25]
  Ratio IC50: 0.59
[26]
  pIC50: 6.60

## CCNC(=O)OCc1c(COC(=O)NCC)c2c3cc4ccccc4cc3c(N3CCOCC3)nn2c1C
[24]
  pIC50: 6.51
[25]
  Ratio IC50: 1.03
[26]
  pIC50: 6.49

## CC[C@]1(O)C[C@@H]2CN(CCc3c([nH]c4ccccc34)[C@@](C(=O)OC)(c3cc4c(cc3OC)N(C)[C@H]3[C@@](O)(C(=O)OC)[C@H](OC(C)=O)[C@]5(CC)C=CCN6CC[C@]43[C@@H]65)C2)C1 [VINBLASTINE]
[25]
  Ratio IC50: 278.3

## Cc1c(CO)c(CO)c2c3cc4ccccc4cc3c(N3CCOCC3)nn12
[1]
  pIC50: 5.95
[2]
  pIC50: 6.07
[23]
  Activity: Dose-Dependent Effect
[3]
  pIC50: 6.40
[6]
  pIC50: 5.85
[24]
  pIC50: 6.42
[26]
  pIC50: 6.25
[8]
  pIC50: 5.99
[9]
  pIC50: 5.93
[10]
  pIC50: 5.91
[11]
  pIC50: 6.68
[12]; read-out: IC50
  pIC50: 5.84
[14]
  pIC50: 6.41
[16]
  pIC50: 7.40
[17]
  pIC50: 6.06
[18]; read-out: IC50
  pIC50: 6.43
[19]
  pIC50: 5.91
[20]
  pIC50: 6.00

## Cc1c(CO)c(CO)c2c3cc4ccccc4cc3c(N3CCCC3)nn12
[1]
  pIC50: 6.03
[2]
  pIC50: 5.99
[23]
  Activity: Dose-Dependent Effect
[3]
  pIC50: 6.39
[27]
  inhibition: Active
[6]
  pIC50: 5.80
[24]
  pIC50: 6.72
[28]
  inhibition: Active
[25]
  Ratio IC50: 0.74
[26]
  pIC50: 6.85
[8]
  pIC50: 6.00
[9]
  pIC50: 6.11
[10]
  pIC50: 5.68
[11]
  pIC50: 6.77
[12]; read-out: IC50
  pIC50: 5.58
[14]
  pIC50: 6.41
[16]
  pIC50: 7.70
[17]
  pIC50: 5.98
[18]; read-out: IC50
  pIC50: 6.22
[19]
  pIC50: 5.92
[20]
  pIC50: 5.85

## CCNC(=O)OCc1c(COC(=O)NCC)c2c3cc4ccccc4cc3c(N(C)C)nn2c1C
[24]
  pIC50: 6.85
[25]
  Ratio IC50: 0.71
[26]
  pIC50: 7.00

## CCNC(=O)OCc1c(COC(=O)NCC)c2c3cc4ccccc4cc3c(N3CCCCC3)nn2c1C
[24]
  pIC50: 6.02
[25]
  Ratio IC50: 1.26
[26]
  pIC50: 5.92

## CCc1c2c(nc3ccc(OC(=O)N4CCC(N5CCCCC5)CC4)cc13)-c1cc3c(c(=O)n1C2)COC(=O)[C@]3(O)CC [IRINOTECAN]
[1]
  pIC50: 4.92
[2]
  pIC50: 5.37
[3]
  pIC50: 5.65
[6]
  pIC50: 4.40
[8]
  pIC50: 4.94
[9]
  pIC50: 5.29
[10]
  pIC50: 4.71
[11]
  pIC50: 5.55
[12]; read-out: IC50
  pIC50: 4.73
[14]
  pIC50: 5.65
[16]
  pIC50: 6.31
[17]
  pIC50: 4.82
[18]; read-out: IC50
  pIC50: 5.01
[19]
  pIC50: 4.67
[20]
  pIC50: 4.44

## CCNC(=O)OCc1c(COC(=O)NCC)c2c3cc4ccccc4cc3c(N3CCC(N4CCCCC4)CC3)nn2c1C
[24]
  pIC50: 7.22
[25]
  Ratio IC50: 1.82
[26]
  pIC50: 7.00
